Four compounds from patent US20230364204A1, “Bioactive Peptides, Compositions, Production Process, and Use of Bioactive Peptides as Anti-Tumoral Agents” (priority 2022, published 2023) can be followed below.

Data set [1] deals with MDA-MB-231 cells implanted in zebrafish larvae. As to the kind of experiment: Zebrafish xenograft model of MDAMB231 (primary tumor and metastasis). The format is in vivo. The following applies: 72 h, 3-NantC co-implanted at 75, 100 or 125 mg/mL, Doxorubicin 2.5 µg/mL in embryo water. The procedure:
Transgenic Tg(fli1:EGFP)y1 zebrafish embryos were raised at 28° C. for 48 hours in E3 embryo medium 0.2 mM 1-Phenyl-2-Thiourea aka PTU. […] MDA-MB-231 cells were labeled with Dil red fluorescent dye. Approximately 700 Dil Labeled cancer cells were subcutaneously co-implanted into the perivitelline space of 2 days old larvae ± 3-NantC peptide at […]. Larvae in which tumor cells had been inadvertently injected into circulation or larvae with erroneous implantation of the tumor in the yolk rather than the perivitelline space were excluded from the study. Selected tumor bearing embryos were sorted into experimental groups (20 embryos/group), and pictures of primary tumors were taken right after injection. Doxorubicin treatment was added to embryo water at 2.5 µg/mL according to the study plan. Tumor-bearing embryos were incubated in E3/PTU medium for 72 h at 36° C. After incubation, pictures of the primary tumors and the CVP were taken using a red fluorescent filter. Larvae that died or were lost by other means during the study were excluded from the final analysis.
Images obtained right after implantation (day 0) and after 72 h incubation (day 3) were analyzed by using in-house developed software. Tumor growth regression was calculated and normalized to the negative control group. The number of metastasized cells was counted manually. One-way ANOVA was performed followed by two-tailed Student’s t-test. Definitive outliers were detected using the ROUT method with a Q=1%. Graphs and example images, and experimental data were obtained/analyzed by using GraphPad Prism v9.0.2.

The nature of data set [2]: MTT cell viability, mammary benign cells. The class given is cell-based. Conditions: human, MCF10A cells (mammary benign cells), read-out: viable cells (MTT). The procedure: (§1) For the method of MTT, the cells were plated in 96-well sterile plates for cell culture with a cap at the density of 2 × 10^4 cells/well for treatments lasting 24 h and 1 × 10^4 cells/well for treatments lasting 48 h or more, completing the volume to 100 µL with culture medium. The plates were incubated for 8-16 h in an incubator at 37° C. and 5% CO2. The next day, the treatments were prepared in culture medium, applying 200 µL/well at the desired concentration, and the plates were placed in an incubator at 37° C. and 5% CO2for the duration of treatment. After the treatment period, 20 µL/well of a MTT solution was added in PBS (1×) at a concentration of 5 mg/mL, and the dye was incubated at 37° C. and 5% CO2 for 2.5 h. After incubation with MTT, Formazan salts were solubilized with the addition of 200 µL of dimethylsulfoxide solution (DMSO): isopropanol (3:1) and agitated for at least 15 minutes at room temperature. After complete dissolution of the salts, the absorbance was read in a spectrophotometer at 570 nm with endpoint protocol.
(§2) The calculation of cell viability was performed using the formula: […]
(§3) O.D.: optical density captured by spectrophotometer
(§4) NOTE: The Basal O.D. is the one found in the blank wells.

For data set [3], the system named is MDAMB231 cells (triple negative). As to the kind of experiment: MTT cell viability, tumor cells. The class given is cell-based. The procedure: as §1, §2, §3, §4
In order to determine the efficacy (comparison of doses and times for the MDAMB231 cell line) and safety (comparison between the effects on MDAMB231 and HDFa cells) of the peptide SEQ ID 1 - MFYPDSRCRGPSET (C-terminal region of Crotoxin B), named 3-NAntC, the Analysis of Variance (ANOVA) with Bonferroni post-hoc test was applied to the significance of 5% in GraphPad Prism software version 6.0.

For `COc1cccc2c1C(=O)c1c(O)c3c(c(O)c1C2=O)C[C@@](O)(C(=O)CO)C[C@@H]3O[C@H]1C[C@H](N)[C@H](O)[C@H](C)O1` [Doxorubicin, reference compound], in data set [1], the “decrease of tumor cells (primary tumor)” value is on record as “about 35%”.
As to “H-AIPFYAFY-OH [Peptide B, [H)-AIPFYAFY-(OH]]”, the viability at 48 h in data set [2] was approximately 85%.
With “MFYPDSRSRGPSET [SEQ ID 10, 3-NAntC monomer]”, the “compared efficacy in decreasing MDAMB231 cells' viability (MTT, FIG. 13/14)” value in data set [3] (MDAMB231, SEQ IDs 2-10 compared to SEQ ID 1) is reported as “interesting antitumor effect”.
Regarding “[H]-HLLQ FNKMIKFETRKNAIPF-[OH] (N-terminal HLLQ) [Peptide A, peptide derived from the N-terminal region of Crotoxin B, reference compound]”, in data set [3] (MDAMB231), the “effect on viability of the tumor cells (MTT), in words” value was “did not decrease the viability”.
